Assay results published in ChEMBL document CHEMBL1201862, “PubChem BioAssay data set” (2004).
Activity calls are given as the source filed them.

Experiments:
[1] = target: T1, RNA-binding protein pos-1 (Caenorhabditis elegans, UniProt G5EF15); experiment: disruptors of C. elegans POS-1 RNA interaction – biochemical, fluorescence polarization, dose response (AID 1964);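 also: purified POS-1 fused to maltose binding protein made in E. coli; potency of compounds blocking POS-1 binding to fluorescent RNA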
T1 sequence (G5EF15 whole entry): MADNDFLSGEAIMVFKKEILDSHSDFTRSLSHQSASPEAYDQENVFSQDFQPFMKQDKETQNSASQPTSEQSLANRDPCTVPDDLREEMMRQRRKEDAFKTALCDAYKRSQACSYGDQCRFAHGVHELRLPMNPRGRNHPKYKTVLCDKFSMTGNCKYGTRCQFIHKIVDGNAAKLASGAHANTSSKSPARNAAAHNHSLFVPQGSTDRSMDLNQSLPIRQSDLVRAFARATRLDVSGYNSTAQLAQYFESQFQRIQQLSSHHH

[2] = Counterscreen for IDE inhibitors: Luminescence-based cell-based high throughput dose response assay to identify compounds that are cytotoxic to HEK cells. [Related pubchem assays: 434962 (Primary screen (IDE inhibitors in singlicate)), 449730 (Counterscreen (Cytotoxicity in triplicate)), 435028 (Confirmation (IDE inhibitors in triplicate)) …; type: functional; details: HEK293
[3] = target: T2, Insulin-degrading enzyme (Homo sapiens, UniProt P14735); experiment: Dose Response: Fluorescence polarization-based cell-based high throughput dose response assay for inhibitors of insulin-degrading enzyme (IDE). [Related pubchem assays: 434962 (Primary screen (IDE inhibitors in singlicate)), 449730 (Counterscreen (Cytotoxicity in triplicate)), 435028 (Confirmation (IDE inhibitors in triplicate)), 434984 (Summary …; type: functional
T2 sequence (P14735 whole entry): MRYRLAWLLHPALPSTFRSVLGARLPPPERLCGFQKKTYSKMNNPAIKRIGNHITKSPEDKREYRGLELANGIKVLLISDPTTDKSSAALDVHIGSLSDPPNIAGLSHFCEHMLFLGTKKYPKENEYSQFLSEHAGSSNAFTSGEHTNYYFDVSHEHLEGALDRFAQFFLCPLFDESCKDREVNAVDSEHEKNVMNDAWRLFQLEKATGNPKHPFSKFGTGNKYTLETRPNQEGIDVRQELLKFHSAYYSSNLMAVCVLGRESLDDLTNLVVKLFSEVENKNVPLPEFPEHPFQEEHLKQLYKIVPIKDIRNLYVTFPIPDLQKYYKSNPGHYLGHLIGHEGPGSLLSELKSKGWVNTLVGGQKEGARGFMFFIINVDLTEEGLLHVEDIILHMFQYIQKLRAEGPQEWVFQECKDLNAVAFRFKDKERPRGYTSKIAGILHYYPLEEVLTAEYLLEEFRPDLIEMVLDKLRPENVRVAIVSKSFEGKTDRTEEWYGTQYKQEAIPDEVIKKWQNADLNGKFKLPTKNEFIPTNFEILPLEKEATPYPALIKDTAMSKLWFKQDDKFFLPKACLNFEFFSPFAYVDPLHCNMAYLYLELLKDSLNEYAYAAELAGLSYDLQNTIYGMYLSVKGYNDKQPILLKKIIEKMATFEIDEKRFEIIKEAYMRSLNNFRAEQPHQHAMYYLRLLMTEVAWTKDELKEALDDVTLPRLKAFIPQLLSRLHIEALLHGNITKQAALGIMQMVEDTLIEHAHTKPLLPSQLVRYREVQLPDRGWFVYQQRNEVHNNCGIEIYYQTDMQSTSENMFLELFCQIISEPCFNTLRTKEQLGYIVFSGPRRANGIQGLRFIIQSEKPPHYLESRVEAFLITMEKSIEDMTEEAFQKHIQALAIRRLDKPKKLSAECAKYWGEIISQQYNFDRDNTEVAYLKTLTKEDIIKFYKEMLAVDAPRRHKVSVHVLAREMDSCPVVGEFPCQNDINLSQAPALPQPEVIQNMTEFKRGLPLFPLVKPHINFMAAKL

[4] = test system: HEK293; experiment: Fluorescence-based counterscreen for potentiators or agonists of NPY-Y2: cell-based high-throughput dose response assay to identify inhibitors of cyclic nucleotide gated ion channel (CNGC) activity. In this assay, the parental HEK293 cell line transfected with a cyclic-nucleotide gated ion channel (CNGC)-based cAMP sensor is used to measure inhibition of isoproterenol-induced CNGC activity by test compound.; type: functional; details: Homo sapiens;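 also: stimulus is 1 µM isoproterenol at EC100 plus PDE inhibitor Ro 20-1724 at 25 µM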
[5] = target: T3, Neuropeptide Y receptor type 2 (Homo sapiens, UniProt P49146); experiment: Fluorescence-based cell-based high-throughput dose response assay for agonists of NPY-Y2. [Related pubchem assays: 1703 (Screening assay (CNGC inhibitors).), 1359 (Screening assay (NPY-Y2 potentiators or agonists).), 1304 (Screening assay (NPY-Y1 potentiators or agonists).), 1710 (Screening assay (NPY-Y2 agonists).), 1791 (Summary AID.)]; type: functional
T3 sequence (P49146 whole entry): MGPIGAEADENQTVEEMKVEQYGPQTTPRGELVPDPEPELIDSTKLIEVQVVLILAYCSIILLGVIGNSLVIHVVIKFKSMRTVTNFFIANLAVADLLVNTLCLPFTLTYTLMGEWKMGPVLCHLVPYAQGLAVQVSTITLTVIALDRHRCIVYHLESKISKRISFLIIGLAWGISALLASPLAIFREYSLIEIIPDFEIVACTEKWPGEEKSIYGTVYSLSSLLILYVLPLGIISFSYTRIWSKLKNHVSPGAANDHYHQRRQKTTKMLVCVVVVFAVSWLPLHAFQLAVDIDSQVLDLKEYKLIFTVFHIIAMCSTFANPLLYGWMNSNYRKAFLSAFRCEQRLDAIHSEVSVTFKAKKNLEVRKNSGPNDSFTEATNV

[6] = target: T4, Neuropeptide Y receptor type 1 (Homo sapiens, UniProt P25929); experiment: Fluorescence-based counterscreen for agonists of NPY-Y2: cell-based high-throughput dose response assay for agonists of NPY-Y1.; type: functional
T4 sequence (P25929 whole entry): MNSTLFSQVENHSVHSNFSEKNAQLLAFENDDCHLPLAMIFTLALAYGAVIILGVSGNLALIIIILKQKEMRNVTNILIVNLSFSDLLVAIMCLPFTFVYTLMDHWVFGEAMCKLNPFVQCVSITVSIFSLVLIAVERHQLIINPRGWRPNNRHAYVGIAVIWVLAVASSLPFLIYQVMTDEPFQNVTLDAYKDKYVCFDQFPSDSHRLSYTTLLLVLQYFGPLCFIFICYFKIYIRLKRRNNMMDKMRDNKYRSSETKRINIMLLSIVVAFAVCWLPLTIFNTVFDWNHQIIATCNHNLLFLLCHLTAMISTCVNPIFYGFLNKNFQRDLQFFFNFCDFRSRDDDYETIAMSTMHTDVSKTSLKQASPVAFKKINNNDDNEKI

[7] = target: T5, Aminopeptidase N (Plasmodium falciparum FcB1/Columbia, UniProt O96935); experiment: malaria alanyl aminopeptidase activity blockers – biochemical, fluorogenic H-Leu-NHMec substrate, 1536-well (AID 1445); set-up: species or system Plasmodium falciparum 3D7, 3D7
T5 sequence (O96935 whole entry): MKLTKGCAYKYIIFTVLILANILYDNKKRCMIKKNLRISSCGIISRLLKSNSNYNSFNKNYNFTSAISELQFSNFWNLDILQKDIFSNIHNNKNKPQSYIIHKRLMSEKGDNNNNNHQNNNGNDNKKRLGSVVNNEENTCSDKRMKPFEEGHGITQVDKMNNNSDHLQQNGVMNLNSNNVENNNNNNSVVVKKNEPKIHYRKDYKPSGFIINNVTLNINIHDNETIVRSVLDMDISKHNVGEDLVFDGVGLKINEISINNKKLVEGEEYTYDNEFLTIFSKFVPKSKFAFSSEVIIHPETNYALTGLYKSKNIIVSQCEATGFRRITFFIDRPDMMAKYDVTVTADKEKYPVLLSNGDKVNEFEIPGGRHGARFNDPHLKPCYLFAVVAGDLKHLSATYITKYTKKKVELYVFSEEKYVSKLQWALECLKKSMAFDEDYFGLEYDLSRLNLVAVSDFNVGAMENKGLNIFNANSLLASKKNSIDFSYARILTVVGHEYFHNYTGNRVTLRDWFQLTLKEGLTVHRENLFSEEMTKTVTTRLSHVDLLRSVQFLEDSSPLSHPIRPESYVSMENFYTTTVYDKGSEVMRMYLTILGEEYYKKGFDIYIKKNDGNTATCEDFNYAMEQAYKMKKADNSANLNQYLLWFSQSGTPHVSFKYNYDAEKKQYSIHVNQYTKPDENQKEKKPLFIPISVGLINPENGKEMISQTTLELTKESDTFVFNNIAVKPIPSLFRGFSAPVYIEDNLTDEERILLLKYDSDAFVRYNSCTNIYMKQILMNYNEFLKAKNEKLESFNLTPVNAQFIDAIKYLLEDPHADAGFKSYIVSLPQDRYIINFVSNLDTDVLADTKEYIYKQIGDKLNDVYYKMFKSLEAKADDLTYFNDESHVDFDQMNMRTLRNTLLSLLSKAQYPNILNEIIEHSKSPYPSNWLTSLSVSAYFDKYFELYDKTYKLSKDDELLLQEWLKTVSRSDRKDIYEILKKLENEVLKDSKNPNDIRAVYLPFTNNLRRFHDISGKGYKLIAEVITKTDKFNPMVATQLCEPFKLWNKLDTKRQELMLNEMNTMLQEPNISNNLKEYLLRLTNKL

[8] = target: T6, SUMO-activating enzyme (Homo sapiens, UniProt Q9UBT2); experiment: blockers of UBC9-mediated SUMO conjugation – biochemical, AlphaScreen, SUMOylation inhibitor project, confirmation (AID 2018); type: functional
T6 sequence (Q9UBE0 whole entry): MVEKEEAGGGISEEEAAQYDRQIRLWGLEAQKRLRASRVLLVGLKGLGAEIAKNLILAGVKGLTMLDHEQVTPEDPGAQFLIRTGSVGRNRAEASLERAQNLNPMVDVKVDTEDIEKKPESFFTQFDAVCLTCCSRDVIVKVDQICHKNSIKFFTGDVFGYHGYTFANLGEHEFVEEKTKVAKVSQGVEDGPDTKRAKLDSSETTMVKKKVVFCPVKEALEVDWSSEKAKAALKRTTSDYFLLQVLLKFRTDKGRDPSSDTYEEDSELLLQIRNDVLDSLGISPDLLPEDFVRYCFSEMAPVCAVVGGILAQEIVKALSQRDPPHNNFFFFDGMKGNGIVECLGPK
T6 sequence (Q9UBT2 whole entry): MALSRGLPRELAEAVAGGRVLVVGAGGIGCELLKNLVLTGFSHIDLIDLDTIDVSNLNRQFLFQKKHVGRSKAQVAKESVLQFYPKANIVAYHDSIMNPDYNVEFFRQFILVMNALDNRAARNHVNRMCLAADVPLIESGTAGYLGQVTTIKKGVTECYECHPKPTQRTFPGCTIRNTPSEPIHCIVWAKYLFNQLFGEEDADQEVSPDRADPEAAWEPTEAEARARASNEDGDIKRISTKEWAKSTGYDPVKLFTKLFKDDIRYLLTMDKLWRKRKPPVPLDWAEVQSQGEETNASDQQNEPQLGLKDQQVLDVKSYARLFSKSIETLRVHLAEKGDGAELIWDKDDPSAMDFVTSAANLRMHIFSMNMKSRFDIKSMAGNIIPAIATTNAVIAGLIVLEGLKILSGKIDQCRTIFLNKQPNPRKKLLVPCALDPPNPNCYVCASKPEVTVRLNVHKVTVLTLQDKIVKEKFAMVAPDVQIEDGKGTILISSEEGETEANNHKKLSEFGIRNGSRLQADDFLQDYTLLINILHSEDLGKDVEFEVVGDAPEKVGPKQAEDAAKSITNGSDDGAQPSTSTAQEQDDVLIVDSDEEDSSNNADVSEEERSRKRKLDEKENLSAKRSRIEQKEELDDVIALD

[9] = target: Large T antigen (Simian virus 40, UniProt P03070); type: functional, Betapolyomavirus macacae;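 also: Confirmatory-stage PubChem screen for compounds that inhibit SV40 T antigen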
Sequence of Large T antigen (P03070 whole entry, the tested form may be a part): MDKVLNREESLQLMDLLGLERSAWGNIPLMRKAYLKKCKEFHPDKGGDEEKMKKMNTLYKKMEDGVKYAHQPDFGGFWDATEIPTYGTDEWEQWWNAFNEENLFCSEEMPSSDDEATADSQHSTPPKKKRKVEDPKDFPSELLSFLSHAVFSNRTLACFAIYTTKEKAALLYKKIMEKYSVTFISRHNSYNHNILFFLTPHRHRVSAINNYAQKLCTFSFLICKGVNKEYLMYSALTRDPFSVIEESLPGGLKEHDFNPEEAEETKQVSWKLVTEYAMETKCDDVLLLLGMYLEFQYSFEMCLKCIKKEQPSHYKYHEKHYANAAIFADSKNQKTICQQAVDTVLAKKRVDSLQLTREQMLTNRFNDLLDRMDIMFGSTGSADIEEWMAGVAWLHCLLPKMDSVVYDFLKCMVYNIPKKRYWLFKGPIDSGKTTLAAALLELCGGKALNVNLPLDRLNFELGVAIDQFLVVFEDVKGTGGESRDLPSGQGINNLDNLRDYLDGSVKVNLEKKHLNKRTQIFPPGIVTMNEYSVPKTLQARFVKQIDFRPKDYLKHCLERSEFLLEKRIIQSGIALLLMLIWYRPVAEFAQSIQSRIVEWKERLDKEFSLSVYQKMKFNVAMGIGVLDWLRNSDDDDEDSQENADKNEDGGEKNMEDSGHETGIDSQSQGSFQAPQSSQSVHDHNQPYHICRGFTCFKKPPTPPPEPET

[10] = CCR5-tropic HIV-1 fusion blockers – cell-based, CCR5-tropic Env, dose response (AID 2279); type: functional
[11] = target: T6, SUMO-activating enzyme; experiment: blockers of SAE1/SAE2–UBC9 SUMO transfer – biochemical, HTRF, uHTS, primary screen (AID 2006); type: protein-complex assay
[12] = target: T7, Induced myeloid leukemia cell differentiation protein Mcl-1 (Homo sapiens, UniProt Q07820); experiment: blockers of MCL1 binding to BIM peptide – biochemical, fluorescence polarization, BIM-BH3 peptide, 1536-well, dose response (AID 2217)
T7 sequence (Q07820 whole entry): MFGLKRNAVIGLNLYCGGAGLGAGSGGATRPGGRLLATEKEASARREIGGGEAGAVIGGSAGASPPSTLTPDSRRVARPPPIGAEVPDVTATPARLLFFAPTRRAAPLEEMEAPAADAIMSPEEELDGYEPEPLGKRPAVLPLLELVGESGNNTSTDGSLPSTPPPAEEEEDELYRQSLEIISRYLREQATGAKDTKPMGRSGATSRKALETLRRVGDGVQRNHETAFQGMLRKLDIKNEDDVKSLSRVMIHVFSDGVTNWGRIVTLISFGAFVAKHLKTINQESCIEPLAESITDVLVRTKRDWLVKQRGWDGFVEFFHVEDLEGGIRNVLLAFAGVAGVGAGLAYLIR

[13] = target: Bcl-2-like protein 1 (Homo sapiens, UniProt Q07817); experiment: blockers of BCLXL peptide binding – biochemical, fluorescence polarization, 1536-well, selectivity assay for MCL1 inhibitor project, dose response (AID 2218)
Sequence of Bcl-2-like protein 1 (Q07817 whole entry): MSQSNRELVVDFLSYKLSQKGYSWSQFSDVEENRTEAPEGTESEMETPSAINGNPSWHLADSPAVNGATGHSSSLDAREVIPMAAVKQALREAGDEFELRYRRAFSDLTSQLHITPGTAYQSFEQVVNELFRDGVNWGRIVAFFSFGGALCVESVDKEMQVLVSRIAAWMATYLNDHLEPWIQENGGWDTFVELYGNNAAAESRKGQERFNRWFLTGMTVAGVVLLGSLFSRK

[14] = target: T7, Induced myeloid leukemia cell differentiation protein Mcl-1; type: functional
[15] = target: T8, Cysteine protease ATG4B (Homo sapiens, UniProt Q9Y4P1); type: functional;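 also: Fluorescence-based dose-response confirmation assay measuring inhibition of ATG4B activity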
T8 sequence (Q9Y4P1 whole entry): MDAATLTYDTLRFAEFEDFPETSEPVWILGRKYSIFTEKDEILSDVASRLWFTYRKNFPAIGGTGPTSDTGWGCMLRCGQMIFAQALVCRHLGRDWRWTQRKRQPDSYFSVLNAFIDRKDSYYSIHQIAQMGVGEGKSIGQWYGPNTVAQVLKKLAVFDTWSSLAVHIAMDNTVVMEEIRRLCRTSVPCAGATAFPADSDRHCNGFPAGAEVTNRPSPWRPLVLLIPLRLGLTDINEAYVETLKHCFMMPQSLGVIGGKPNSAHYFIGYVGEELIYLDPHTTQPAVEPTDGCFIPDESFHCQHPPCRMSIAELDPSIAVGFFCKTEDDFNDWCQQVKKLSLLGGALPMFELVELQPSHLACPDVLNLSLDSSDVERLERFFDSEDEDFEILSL

[16] = target: Phospholipase A2 (Homo sapiens, UniProt P04054); type: functional;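 also: confirmatory dose-response counterscreen on phospholipase A2, testing hits that came from an ultra-high-throughput screen for ATG4B inhibitors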
Sequence of Phospholipase A2 (P04054 whole entry): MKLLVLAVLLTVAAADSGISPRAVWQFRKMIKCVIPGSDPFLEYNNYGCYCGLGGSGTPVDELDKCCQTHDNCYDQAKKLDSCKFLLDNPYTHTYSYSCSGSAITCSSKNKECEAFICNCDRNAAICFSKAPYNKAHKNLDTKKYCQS

[17] = test system: Vero; experiment: viability of Vero cells under compound – cytotoxicity control for flavivirus capping enzyme inhibitors (AID 588742); type: functional; details: Chlorocebus sabaeus
[18] = target: Genome polyprotein (dengue virus type 2, UniProt P29990); experiment: flavivirus cap methylation enzyme inhibition – biochemical, confirmation dose response, primary screen (AID 588689); type: functional
Sequence of Genome polyprotein (P29990 2492-3391 limits assumed): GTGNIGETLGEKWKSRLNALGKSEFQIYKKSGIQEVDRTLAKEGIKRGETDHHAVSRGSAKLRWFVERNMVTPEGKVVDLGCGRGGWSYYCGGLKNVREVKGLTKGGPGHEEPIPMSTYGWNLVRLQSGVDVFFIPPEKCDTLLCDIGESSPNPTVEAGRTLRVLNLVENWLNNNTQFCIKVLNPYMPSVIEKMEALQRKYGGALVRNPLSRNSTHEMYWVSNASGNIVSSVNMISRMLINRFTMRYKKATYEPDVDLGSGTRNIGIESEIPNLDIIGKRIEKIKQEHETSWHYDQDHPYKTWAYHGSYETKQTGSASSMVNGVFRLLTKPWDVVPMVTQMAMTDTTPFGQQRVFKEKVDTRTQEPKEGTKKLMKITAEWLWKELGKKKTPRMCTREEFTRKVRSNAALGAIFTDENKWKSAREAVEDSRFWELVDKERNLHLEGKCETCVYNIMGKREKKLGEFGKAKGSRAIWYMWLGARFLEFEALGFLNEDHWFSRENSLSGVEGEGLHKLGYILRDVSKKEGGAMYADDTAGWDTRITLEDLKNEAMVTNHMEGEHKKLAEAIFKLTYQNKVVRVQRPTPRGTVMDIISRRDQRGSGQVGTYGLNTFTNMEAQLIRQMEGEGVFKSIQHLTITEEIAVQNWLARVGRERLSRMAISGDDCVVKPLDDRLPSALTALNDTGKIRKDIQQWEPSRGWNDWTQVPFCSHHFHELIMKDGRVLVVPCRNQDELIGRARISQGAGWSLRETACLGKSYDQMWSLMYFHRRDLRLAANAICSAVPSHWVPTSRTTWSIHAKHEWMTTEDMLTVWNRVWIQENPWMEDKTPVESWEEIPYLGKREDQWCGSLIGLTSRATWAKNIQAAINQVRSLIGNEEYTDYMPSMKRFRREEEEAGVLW

[19] = target: 26S proteasome non-ATPase regulatory subunit 14 (Homo sapiens, UniProt O00487); experiment: inhibition of proteasome subunit RPN11 – biochemical, fluorescence polarization, uHTS hits, confirmation (AID 602368); type: functional
[20] = target: 72 kDa type IV collagenase (Homo sapiens, UniProt P08253); experiment: Dose Response validation of uHTS RPN11 inhibitor hits using a MMP-2 Fluorescence assay.; type: functional
Sequence of 72 kDa type IV collagenase (P08253 whole entry): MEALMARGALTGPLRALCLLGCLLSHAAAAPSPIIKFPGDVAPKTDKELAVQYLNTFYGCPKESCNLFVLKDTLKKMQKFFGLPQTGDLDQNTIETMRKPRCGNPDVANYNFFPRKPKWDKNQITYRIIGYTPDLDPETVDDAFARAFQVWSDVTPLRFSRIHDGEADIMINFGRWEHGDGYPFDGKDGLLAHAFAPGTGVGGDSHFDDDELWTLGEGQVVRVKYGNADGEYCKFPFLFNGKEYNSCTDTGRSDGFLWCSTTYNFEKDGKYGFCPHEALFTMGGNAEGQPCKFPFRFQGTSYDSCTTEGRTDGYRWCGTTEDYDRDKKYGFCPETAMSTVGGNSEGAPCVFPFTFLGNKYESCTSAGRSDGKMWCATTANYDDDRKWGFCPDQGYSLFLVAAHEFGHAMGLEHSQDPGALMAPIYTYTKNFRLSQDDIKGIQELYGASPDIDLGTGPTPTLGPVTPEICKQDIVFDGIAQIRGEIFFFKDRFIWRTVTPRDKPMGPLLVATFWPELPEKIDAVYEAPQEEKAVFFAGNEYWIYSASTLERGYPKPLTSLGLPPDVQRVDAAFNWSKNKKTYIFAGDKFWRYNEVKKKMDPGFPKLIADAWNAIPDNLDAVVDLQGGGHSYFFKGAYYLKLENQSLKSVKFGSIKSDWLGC

[21] = target: Prothrombin (Bos taurus, UniProt P00735); experiment: thrombin protease inhibitors – biochemical, fluorescence polarization, uHTS hits, dose response (AID 602369); type: functional
[22] = target: T9, Methionyl-tRNA synthetase, putative (Trypanosoma brucei brucei, UniProt Q38C91); type: functional, Trypanosoma brucei brucei strain 927/4 GUTat10.1
T9 sequence (Q38C91 whole entry): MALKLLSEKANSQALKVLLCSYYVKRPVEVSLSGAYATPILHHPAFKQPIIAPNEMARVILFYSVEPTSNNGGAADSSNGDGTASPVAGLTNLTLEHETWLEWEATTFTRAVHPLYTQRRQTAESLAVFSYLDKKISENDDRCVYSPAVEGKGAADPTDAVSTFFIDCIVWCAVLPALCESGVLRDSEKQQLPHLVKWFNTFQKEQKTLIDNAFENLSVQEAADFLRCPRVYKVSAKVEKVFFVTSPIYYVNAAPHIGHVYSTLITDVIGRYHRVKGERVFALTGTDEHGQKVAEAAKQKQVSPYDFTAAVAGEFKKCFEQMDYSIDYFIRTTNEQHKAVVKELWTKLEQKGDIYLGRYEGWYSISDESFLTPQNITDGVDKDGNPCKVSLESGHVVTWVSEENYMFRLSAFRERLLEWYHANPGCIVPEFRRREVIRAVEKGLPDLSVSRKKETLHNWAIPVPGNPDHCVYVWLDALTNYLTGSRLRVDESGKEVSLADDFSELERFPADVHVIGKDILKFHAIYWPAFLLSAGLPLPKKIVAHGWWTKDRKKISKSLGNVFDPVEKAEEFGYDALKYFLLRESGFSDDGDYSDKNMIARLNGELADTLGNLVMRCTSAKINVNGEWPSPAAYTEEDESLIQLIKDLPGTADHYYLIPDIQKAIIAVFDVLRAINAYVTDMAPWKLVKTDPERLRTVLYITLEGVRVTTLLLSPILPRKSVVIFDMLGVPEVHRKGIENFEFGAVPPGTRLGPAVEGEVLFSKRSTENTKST

[23] = Counterscreen for inhibitors of Trypanosoma brucei methionyl tRNA synthetase (MetRS): Luminescence-based cell-based high throughput dose response assay to identify compounds that are cytotoxic to Jurkat human T lymphocyte cells.; type: functional
[24] = target: T9, Methionyl-tRNA synthetase, putative; type: functional, Trypanosoma brucei brucei strain 927/4 GUTat10.1; remark: listed apart in the source
[25] = IC50 of Artemis nuclease activity blockers – biochemical, fluorescence intensity, dose response (AID 720701); type: functional;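 also: Artemis endonuclease enzyme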

COc1ccc(/N=C(\C)c2sc3ccccc3c2O)cc1
EC50 [1]: > 300 µM (not active)
IC50 [2]: > 55.7 µM (not active)
IC50 [3]: > 18.7 µM (not active)

O=C1C2CC=CCC2C(=O)N1c1ccc(NCCc2ccc(O)cc2)c([N+](=O)[O-])c1 (stereo not given)
EC50 [4]: 15.3 µM (not active)
EC50 [5]: > 35.4 µM (not active)
EC50 [6]: 26.5 µM (not active)

O=C(N/N=C/c1ccc(-c2ccc(S(=O)(=O)Nc3ncccn3)cc2)o1)c1cc2ccccc2cc1O
IC50 [7]: 42.3 µM (active)
IC50 [8]: 2.21 µM (active)
IC50 [9]: 52.8 µM (active)
IC50 [10]: 17 µM (active)
IC50 [11]: 12.4 µM (active)
IC50 [12]: > 4.03 µM (active)
IC50 [13]: > 109 µM (not active)
IC50 [14]: 1.63 µM (active)
IC50 [15]: 5.98 µM (active)
IC50 [16]: 20.3 µM (inactive)
CC50 [17]: 26 µM (active)
IC50 [18]: 76.5 µM (active)
IC50 [19]: 33.3 µM (active)
IC50 [20]: > 100 µM (inactive)
IC50 [21]: 75.6 µM (active)
IC50 [22]: 15.8 µM (inactive)
IC50 [23]: 83.3 µM (inactive)
IC50 [24]: 18.6 µM (inactive)
IC50 [25]: 11.4 µM (active)
